These results are taken from paper PMC6386544 (Infection and Immunity, 2019).

Like-named read-outs stand apart in the source and are kept apart here.

Assay [1] has as its target T1, ToxA-B1 (Clostridioides difficile, UniProt P16154).
T1 construct: gene tcdA
Particulars: glycan 160 nM to 100 μM.

The target of assay [2] is T2, ToxB-GT (Clostridioides difficile, UniProt P18177).
T2 construct: gene tcdB
Particulars: glycan 160 nM to 100 μM.

Assay [3] addresses T3, ToxA-B3 (Clostridioides difficile, UniProt P16154).
T3 construct: gene tcdA
Particulars: glycan 160 nM to 100 μM.

Assay [4] concerns the target T4, ToxB-B2 (Clostridioides difficile, UniProt P18177).
T4 construct: gene tcdB
Conditions: glycan 160 nM to 100 μM.

Assay [5] has as its target T3, ToxA-B3. As to the kind of experiment: biochemical.
In assay [6] the target is T4, ToxB-B2. Put plainly: biochemical.
The target of assay [7] is T2, ToxB-GT. As to the kind of experiment: biochemical.
In assay [8] the target is T1, ToxA-B1. As to the kind of experiment: biochemical.
Setting [9] is: read-out: Protein binding (KD)^a / ToxA-B1.
The mark [10] stands for this setting: read-out: Protein binding (KD)^a / ToxA-B3.
The mark [11] stands for this setting: read-out: Protein binding (KD)^a / ToxB-B2.

Take `CC(=O)N[C@H]1[C@H](O[C@H]2[C@@H](O)[C@@H](CO)OC(O)[C@@H]2O)O[C@H](CO)[C@@H](O[C@@H]2O[C@H](CO)[C@H](O)[C@H](O)[C@H]2O)[C@@H]1O[C@@H]1O[C@@H](C)[C@@H](O)[C@@H](O)[C@@H]1O` (some centres unmarked) [Lewis X]: the Kd on ToxA-B1 [1] (setting [9]) was 18.9 ± 5.58 µM; at ToxB-GT [2], above 100 µM; at ToxA-B3 [3] (setting [10]), 16.5 ± 2.8 µM; at ToxB-B2 [4] (setting [11]) it was 0.501 ± 0.308 µM.
The corresponding values for `CC(=O)N[C@H]1[C@H](O[C@H]2[C@@H](O)[C@@H](CO)OC(O)[C@@H]2O)O[C@H](CO)[C@@H](O[C@@H]2O[C@@H](C)[C@@H](O)[C@@H](O)[C@@H]2O)[C@@H]1O[C@@H]1O[C@H](CO)[C@H](O)[C@H](O)[C@H]1O` (some centres unmarked) [Lewis A] are 3.38 ± 0.95 µM, above 100 µM, 1.65 ± 0.62 µM and 0.579 ± 0.037 µM.
For Blood group A the same measures were 1.53 ± 0.6 µM, above 100 µM, 0.0614 ± 0.0296 µM and 0.0291 ± 0.0075 µM.
On to Blood group H, for which the Kd on ToxA-B1 [1] (setting [9]) is 1.22 ± 0.49 µM; at ToxB-GT [2] it was above 100 µM; at ToxA-B3 [3] it was above 100 µM; at ToxB-B2 [4] (setting [11]), 0.428 ± 0.008 µM.
In the case of Lewis Y, the Kd on ToxA-B1 [1] (setting [9]) is 12.7 ± 2.47 µM; on ToxB-GT [2] it was above 100 µM; on ToxA-B3 [3] (setting [10]) it was 55.5 ± 28.8 µM; at ToxB-B2 [4] (setting [11]), 8 ± 0.74 µM.
Consider `C[C@@H]1O[C@@H](O[C@H]2[C@H](O[C@H]3[C@H](O)[C@@H](O)C(O)O[C@@H]3CO)O[C@H](CO)[C@H](O)[C@@H]2O[C@H]2O[C@H](CO)[C@H](O)[C@H](O)[C@H]2O)[C@@H](O)[C@H](O)[C@@H]1O` (some centres unmarked) [Blood group B], for which the Kd was 11.4 ± 1.08 µM at ToxA-B1 [1] (setting [9]), above 100 µM at ToxB-GT [2], 14.4 ± 3.2 µM at ToxA-B3 [3] (setting [10]) and 42.9 ± 59.1 µM on ToxB-B2 [4] (setting [11]).
On to Man5, for which the Kd on ToxA-B1 [1], at ToxB-GT [2], at ToxA-B3 [3] and at ToxB-B2 [4] was above 100 µM in each case.
As for `CO[C@H]1O[C@H](CO)[C@@H](O)[C@H](O)[C@@H]1O` [α-Methyl-mannose], the Kd was above 100 µM at ToxA-B3 [5], 0.315 ± 0.103 µM on ToxB-B2 [6], above 100 µM on ToxB-GT [7] and above 100 µM at ToxA-B1 [8].
`CC(=O)N[C@H]1[C@H](O[C@H]2[C@@H](O)[C@@H](CO)OC(O)[C@@H]2O)O[C@H](CO)[C@@H](O[C@@H]2O[C@@H](C)[C@@H](O)[C@@H](O)[C@@H]2O)[C@@H]1O[C@@H]1O[C@H](CO)[C@H](O)[C@H](O)[C@H]1O[C@@H]1O[C@@H](C)[C@@H](O)[C@@H](O)[C@@H]1O` (some centres unmarked) [Lewis B]: the Kd at ToxB-GT [2] was above 100 µM; on ToxB-B2 [4] (setting [11]), 0.395 ± 0.029 µM.
For the compound Sialyl-Lewis A, the Kd at ToxA-B1 [1] (setting [9]) is 71.8 ± 27.1 µM; on ToxB-GT [2], above 100 µM; at ToxA-B3 [3] (setting [10]), 72.1 ± 31.8 µM; at ToxB-B2 [4] (setting [11]), 2.39 ± 0.68 µM.
